Patent publication US5208217A, “Hepatospecific insulin analogues” (Mount Sinai School of Medicine of The City University of …, priority 1991, dated 1993)

How the values were obtained:
isolated rat adipocytes = assay: Lipogenesis assay: conversion of [3-3H] glucose into lipids; format: cell-based; conditions: FIG. 3
Excerpt: In this Example the materials used and the analytical procedures followed are those found in Kitagawa et al., Biochemistry, 23: 1405-1413 (1984). ^125 I-insulin for receptor binding studies and [3-^3 H] glucose for lipogenesis were obtained from DuPont NEN Research Products. Cellulose acetate membrane filters, 0.2 μm pore size, were products of Sartorius. Glass-fiber filters, Type GFC, were from Whatman. Collagenase, Type II crude, was obtained from Worthington. The scintillation fluids Filtron-X®, Hydrofluor® and Soluscint-O® were products of National Diagnostics. Crystalline bovine insulin was from Sigma, and fatty-acid free bovine serum albumin from Boehringer - Mannheim Biochemicals.
The data points represent the mean triplicate determinations in representative assays performed four times.

[1] = tested on: FAO cells (well differentiated hepatoma cell line); assay: Inhibition of gluconeogenesis assay (glucose secretion into the medium); format: cell-based; conditions: FIG. 4
Procedure: This assay was carried out on confluent monolayers of a well differentiated hepatoma cell line (Lauris et al. Endocrinology 118:2519-2524 (1986)) in which glucose production was monitored with a commercial glucose oxidase kit (Sigma kit no. 510-A, Sigma Technical Bulletin 510, 1983). Inhibition of glucose secretion into the medium was determined as a function of the concentration of insulin or insulin analogue, and the relative potency of the analogue was defined as the ratio of the concentration of insulin to analogue required to produce half-maximal inhibition of glucose production. The cell culture and glucose production was carried out as described by Lauris et al., supra.
The potency of the synthetic insulin in inhibiting gluconeogenesis is calculated to be about 90% relative to the natural hormone.

[Trp^14 -A] insulin
Concentration of agonist producing half-maximal stimulation of lipogenesis compared with bovine insulin (isolated rat adipocytes): about twice the concentration
Maximum stimulation of lipogenesis compared with bovine insulin (isolated rat adipocytes): same maximum stimulation
Concentration of agonist producing half-maximal inhibition of gluconeogenesis compared with insulin [1]: approximately the same concentration
Maximum inhibition of gluconeogenesis compared with insulin [1]: same maximum inhibition
